The text below walks through data of ChEMBL document CHEMBL4024719, “Recent progress in the identification of selective butyrylcholinesterase inhibitors for Alzheimer's disease” (Eur J Med Chem, 2017).

A short description of series [1]: Selectivity ratio of IC50 for electric eel AChE to IC50 for equine serum BChE.
For series [2], the target named is T1, Cholinesterase (Equus caballus, UniProt P81908). Briefly: Inhibition of equine serum BChE using butyrylthiocholine iodide as substrate.
In series [3] the target is T2, Acetylcholinesterase (Bos taurus, UniProt P23795).
T2 sequence (P23795 whole entry): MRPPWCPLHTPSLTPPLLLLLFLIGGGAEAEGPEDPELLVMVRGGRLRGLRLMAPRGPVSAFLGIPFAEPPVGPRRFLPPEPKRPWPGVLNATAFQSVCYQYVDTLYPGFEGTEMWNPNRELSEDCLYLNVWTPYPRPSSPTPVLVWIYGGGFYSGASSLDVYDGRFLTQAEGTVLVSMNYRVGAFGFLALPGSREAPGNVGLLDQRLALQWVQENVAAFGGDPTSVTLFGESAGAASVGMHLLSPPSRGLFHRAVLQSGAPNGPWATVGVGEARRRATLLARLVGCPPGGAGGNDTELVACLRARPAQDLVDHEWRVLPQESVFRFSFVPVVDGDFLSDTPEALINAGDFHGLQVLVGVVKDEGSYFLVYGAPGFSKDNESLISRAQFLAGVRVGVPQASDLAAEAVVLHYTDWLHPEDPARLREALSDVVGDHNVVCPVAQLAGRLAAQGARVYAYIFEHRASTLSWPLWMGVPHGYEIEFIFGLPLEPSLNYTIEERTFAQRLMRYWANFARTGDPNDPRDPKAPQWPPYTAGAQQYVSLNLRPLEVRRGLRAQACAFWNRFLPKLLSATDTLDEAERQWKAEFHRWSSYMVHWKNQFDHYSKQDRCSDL
Briefly: Inhibition of fetal bovine serum AChE using acetylthiocholine iodide as substrate.

Series [4] addresses T1, Cholinesterase. Briefly: Inhibition of equine serum BuChE using butyrylthiocholine iodide as substrate pretreated for 10 mins followed by substrate addition by DTNB reagent based spectrophotometric method.
Series [5] addresses T3, Cholinesterase (Homo sapiens, UniProt P06276). Briefly: Inhibition of human plasma BuChE using butyrylthiocholine iodine as substrate pretreated for 10 mins followed by substrate addition measured for 5 mins by Ellman's method. (DTNB colorimetry detects thiols as they appear.)
A further series is filed under the species Homo sapiens. Briefly: Selectivity ratio of IC50 for human erythrocytes AChE to IC50 for human serum BuChE.
Series [6] concerns the target T3, Cholinesterase. Briefly: Inhibition of human […] BuChE using s-butyrylthiocholine as substrate pretreated for 30 mins followed by substrate addition after 25 mins by spectrophotometric method.
Series [7] deals with Acetylcholinesterase (Homo sapiens, UniProt P22303). Briefly: Inhibition of human […] AChE using acetyl-(beta-methyl)thiocholine as substrate pretreated for 30 mins followed by substrate addition after 25 mins by spectrophotometric method.
Sequence of Acetylcholinesterase (Homo sapiens, UniProt P22303) (P22303 whole entry): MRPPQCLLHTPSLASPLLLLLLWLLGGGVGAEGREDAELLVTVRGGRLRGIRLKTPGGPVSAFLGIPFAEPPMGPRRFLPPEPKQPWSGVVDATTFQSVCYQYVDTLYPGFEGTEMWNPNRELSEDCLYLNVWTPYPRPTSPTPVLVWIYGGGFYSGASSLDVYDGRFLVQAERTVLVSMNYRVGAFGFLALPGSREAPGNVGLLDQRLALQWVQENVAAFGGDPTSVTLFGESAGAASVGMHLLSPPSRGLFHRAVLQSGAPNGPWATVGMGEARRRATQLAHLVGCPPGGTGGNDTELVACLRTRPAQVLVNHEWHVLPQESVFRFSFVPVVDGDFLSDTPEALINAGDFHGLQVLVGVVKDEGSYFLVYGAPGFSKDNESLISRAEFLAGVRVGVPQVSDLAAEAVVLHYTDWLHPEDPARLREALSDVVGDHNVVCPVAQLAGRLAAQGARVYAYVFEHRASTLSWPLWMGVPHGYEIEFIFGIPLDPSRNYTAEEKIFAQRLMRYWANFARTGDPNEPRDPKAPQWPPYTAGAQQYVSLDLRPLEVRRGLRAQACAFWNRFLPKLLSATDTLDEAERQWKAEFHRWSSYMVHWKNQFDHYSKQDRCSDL
Series [8] deals with T3, Cholinesterase. Briefly: Inhibition of BuChE (unknown origin).
For series [9], the target named is T1, Cholinesterase. Briefly: Inhibition of equine serum BChE using butyrylthiocholine iodide as substrate measured at 12 secs interval for 10 mins by Ellman's method.
Series [10] has as its target T4, Acetylcholinesterase (Electrophorus electricus, UniProt O42275). Briefly: Inhibition of electric eel AChE using acetylthiocholine iodide as substrate measured at 12 secs interval for 10 mins by Ellman's method.
Series [11] can be described thus: Cytotoxicity against human SH-SY5Y cells assessed as cell viability at 25 uM after 24 hrs by MTT assay relative to control. The following applies: read-out: Activity. Type of series: cell-based.
Series [12] addresses Amyloid-beta precursor protein (Homo sapiens) (UniProt P05067). Briefly: Inhibition of amyloid beta (1 to 42) (unknown origin) self-aggregation at 25 uM incubated for 30 mins measured every 5 mins for 14 hrs by thioflavin T fluorescence assay relative to control.
Series [13] shares this target. Briefly: Inhibition of HFIP-pretreated amyloid beta (1 to 42) (unknown origin) self-induced aggregation at 50 uM after 24 hrs by thioflavin-T fluorescence assay relative to control.
Series [14] addresses T3, Cholinesterase. Briefly: Inhibition of human serum BuChE using butyrylthiocholine iodide as substrate pretreated for 20 mins followed by substrate addition by DTNB reagent based spectrophotometric method.
The nature of series [15]: Cytotoxicity against human T67 cells assessed as cell viability at 10 uM after 24 hrs by resazurin dye based spectrofluorimetric method relative to control. The following applies: read-out: Activity. (In general: The colour change of resazurin is a common sign of viable cells or microbes.)
A short description of series [16]: Cytotoxicity against human T67 cells assessed as cell viability at 50 uM after 24 hrs by resazurin dye based spectrofluorimetric method relative to control. Particulars: read-out: Activity.
The test system of series [17] is Rattus norvegicus. Briefly: In-vivo inhibition of BuChE in Harlan-Wistar rat brain assessed as increase in acetylcholine level at 1.25 mg/kg, ip by microdialysis method relative to control. Type of series: functional.
Series [18] relates to Rattus norvegicus. Briefly: In-vivo inhibition of BuChE in Harlan-Wistar rat brain assessed as increase in acetylcholine level at 2.5 mg/kg, ip by microdialysis method relative to control. Type of series: functional.
The target of series [19] is Acetylcholinesterase (Electrophorus electricus) (UniProt O42275). Briefly: Inhibition of electric eel AChE-induced human amyloid beta (1 to 40 residues) at 100 uM by thiofalvin-T fluorescence assay relative to control.
Sequence of Acetylcholinesterase (Electrophorus electricus) (O42275 24-633 limits assumed): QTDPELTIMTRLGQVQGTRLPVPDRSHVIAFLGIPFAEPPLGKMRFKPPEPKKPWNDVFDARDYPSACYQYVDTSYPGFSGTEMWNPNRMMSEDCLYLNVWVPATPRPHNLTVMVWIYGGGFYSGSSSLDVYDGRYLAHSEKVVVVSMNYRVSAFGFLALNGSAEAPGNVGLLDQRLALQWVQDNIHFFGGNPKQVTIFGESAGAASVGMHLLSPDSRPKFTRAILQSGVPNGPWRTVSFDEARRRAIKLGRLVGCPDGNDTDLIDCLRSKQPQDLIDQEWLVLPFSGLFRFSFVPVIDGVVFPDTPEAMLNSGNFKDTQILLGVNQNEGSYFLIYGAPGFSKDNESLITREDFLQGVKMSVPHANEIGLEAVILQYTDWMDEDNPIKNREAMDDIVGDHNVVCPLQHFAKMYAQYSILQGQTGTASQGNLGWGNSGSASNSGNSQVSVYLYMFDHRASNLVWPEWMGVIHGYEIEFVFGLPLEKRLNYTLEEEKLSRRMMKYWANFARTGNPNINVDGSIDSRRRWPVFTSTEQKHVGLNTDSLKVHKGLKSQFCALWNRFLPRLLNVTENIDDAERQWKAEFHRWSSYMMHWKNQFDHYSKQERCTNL
Series [20] has as its target T4, Acetylcholinesterase. Briefly: Inhibition of electric eel AChE using acetylthiocholine iodide as substrate pretreated for 6 mins followed by substrate measured at 60 secs interval for 180 secs by Ellman's method.
Series [21] concerns the target T1, Cholinesterase. Briefly: Inhibition of equine serum BuChE using s-butyrylthiocholine iodide as substrate pretreated for 6 mins followed by substrate addition measured at 60 secs interval for 180 secs by Ellman's method.
The target in series [22] is T3, Cholinesterase. Briefly: Inhibition of human BuChE.

Usually IC50 stands for the concentration needed to halve the response being measured. Broadly, the inhibition is how much of the control response was suppressed. The inhibition in vivo is the change of the read-out against control, counted positive when it falls.

SMILES strings stand for the structures.

T1 sequence (P81908 whole entry): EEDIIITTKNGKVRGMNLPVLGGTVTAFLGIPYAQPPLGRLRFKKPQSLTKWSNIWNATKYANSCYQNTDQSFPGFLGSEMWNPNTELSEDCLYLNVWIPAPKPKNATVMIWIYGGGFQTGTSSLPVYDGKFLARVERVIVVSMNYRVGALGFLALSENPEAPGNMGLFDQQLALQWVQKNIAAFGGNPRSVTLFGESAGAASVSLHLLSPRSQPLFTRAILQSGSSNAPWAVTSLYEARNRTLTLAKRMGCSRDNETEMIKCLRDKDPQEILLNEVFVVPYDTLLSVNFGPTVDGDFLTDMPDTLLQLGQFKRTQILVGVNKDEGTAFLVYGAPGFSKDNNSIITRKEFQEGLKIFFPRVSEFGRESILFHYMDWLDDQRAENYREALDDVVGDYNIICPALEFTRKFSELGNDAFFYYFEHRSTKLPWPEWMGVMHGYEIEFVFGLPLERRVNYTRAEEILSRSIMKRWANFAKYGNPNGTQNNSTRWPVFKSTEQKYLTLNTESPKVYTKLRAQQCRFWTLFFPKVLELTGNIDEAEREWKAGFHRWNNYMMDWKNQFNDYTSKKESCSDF
T3 sequence (P06276 whole entry): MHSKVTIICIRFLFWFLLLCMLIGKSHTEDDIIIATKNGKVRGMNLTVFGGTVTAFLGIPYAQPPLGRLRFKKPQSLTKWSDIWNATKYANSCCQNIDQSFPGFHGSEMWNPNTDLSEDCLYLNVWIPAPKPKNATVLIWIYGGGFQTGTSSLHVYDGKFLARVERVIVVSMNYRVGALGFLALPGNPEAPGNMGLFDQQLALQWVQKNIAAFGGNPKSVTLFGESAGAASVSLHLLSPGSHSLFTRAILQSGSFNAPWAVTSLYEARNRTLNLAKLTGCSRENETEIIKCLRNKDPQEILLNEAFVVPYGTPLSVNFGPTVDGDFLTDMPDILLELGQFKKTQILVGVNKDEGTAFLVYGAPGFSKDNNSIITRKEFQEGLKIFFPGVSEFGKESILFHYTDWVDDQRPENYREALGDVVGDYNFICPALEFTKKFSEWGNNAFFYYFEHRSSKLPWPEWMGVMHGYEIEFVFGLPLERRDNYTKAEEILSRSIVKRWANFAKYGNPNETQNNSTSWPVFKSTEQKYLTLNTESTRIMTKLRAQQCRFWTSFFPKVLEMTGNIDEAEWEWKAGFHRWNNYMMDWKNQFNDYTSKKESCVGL
T4 sequence (O42275 whole entry): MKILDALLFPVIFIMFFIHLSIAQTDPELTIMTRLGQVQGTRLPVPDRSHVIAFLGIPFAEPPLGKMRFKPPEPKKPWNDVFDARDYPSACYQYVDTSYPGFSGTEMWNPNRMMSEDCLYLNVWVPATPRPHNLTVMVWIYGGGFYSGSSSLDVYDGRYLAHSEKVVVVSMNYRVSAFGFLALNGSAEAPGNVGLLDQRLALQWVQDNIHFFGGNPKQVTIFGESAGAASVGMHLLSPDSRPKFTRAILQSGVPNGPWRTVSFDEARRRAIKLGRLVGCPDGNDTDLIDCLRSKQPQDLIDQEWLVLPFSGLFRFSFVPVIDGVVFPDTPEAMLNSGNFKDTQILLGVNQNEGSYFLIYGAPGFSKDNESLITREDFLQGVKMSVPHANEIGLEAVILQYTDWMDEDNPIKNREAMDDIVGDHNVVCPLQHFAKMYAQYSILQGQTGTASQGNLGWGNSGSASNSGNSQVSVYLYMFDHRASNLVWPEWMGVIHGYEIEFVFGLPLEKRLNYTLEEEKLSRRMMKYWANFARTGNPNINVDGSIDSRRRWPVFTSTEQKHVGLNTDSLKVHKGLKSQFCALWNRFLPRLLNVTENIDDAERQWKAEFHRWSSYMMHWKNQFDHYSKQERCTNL
Sequence of Amyloid-beta precursor protein (Homo sapiens) (P05067 whole entry): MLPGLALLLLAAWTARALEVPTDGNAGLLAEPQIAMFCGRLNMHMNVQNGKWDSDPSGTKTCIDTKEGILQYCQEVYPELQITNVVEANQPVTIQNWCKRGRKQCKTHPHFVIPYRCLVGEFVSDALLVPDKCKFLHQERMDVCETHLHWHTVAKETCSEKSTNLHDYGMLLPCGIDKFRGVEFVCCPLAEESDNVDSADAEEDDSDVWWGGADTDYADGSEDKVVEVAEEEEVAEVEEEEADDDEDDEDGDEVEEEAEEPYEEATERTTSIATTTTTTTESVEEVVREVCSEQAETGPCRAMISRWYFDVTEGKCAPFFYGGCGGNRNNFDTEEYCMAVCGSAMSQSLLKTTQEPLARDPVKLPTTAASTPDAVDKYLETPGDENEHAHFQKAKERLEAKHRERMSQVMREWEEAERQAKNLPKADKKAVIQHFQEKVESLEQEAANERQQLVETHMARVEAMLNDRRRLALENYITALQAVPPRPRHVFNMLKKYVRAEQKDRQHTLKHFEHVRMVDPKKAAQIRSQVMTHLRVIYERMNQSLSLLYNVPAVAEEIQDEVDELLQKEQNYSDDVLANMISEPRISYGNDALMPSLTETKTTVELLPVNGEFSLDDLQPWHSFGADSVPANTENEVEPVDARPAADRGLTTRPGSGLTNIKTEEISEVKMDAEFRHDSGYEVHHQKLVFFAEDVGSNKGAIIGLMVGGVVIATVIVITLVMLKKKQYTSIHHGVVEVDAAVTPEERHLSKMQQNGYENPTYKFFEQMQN

Turning to `CC(C(=O)NCCCCCCCCNc1c2c(nc3ccccc13)CCCC2)c1ccc(-c2ccccc2)c(F)c1` (stereo not drawn), in [1], the Ratio IC50 was determined as 16.4.

Regarding `CC(=O)N(CCCNc1c2c(nc3ccccc13)CCCC2)CCNc1c2c(nc3ccccc13)CCCC2`, the 50% inhibitory concentration (IC50) at Cholinesterase [2] came to 2 nM; against Acetylcholinesterase [3] it was 1500 nM.

`CCN1CCc2c(c3cc(F)ccc3n2CCC(=O)N2c3ccccc3Sc3ccccc32)C1`: on Cholinesterase [4], the IC50 was found to be 390 nM.

For `COc1ccc(N[C@@H]2CCC[C@@H](OC(=O)N(C)C)C2)cc1`, on Cholinesterase [5], the IC50 turned out to be 110 µM.

Take `COc1ccc(N[C@H]2CCC[C@@H](OC(=O)N(C)C)C2)cc1`: the half-maximal inhibitory concentration (IC50) at Cholinesterase [5] stood at 110 µM.

On to `c1ccc(CNc2c3c(nc4ccccc24)CCCC3)nc1`, for which the Ratio IC50 in the series listed under Homo sapiens was found to be 957.

Consider `CC(C)c1ccc(NC(=O)Oc2ccc3c(c2)[C@]2(C)CCC(C)[C@@H]2C3C)cc1` (stereo partly drawn), for which the IC50 was determined as 50 nM at Cholinesterase [6] and 760 nM at Acetylcholinesterase [7].

Consider `Oc1ccc(-c2cnc3ccccc3n2)cc1`, for which 7.7 µM corresponded to half-maximal inhibition on Cholinesterase [8] (IC50).

Turning to `Oc1ccc(/C=C/c2cc(O)cc(O)c2)cc1` [RESVERATROL], the IC50 on Cholinesterase [9] was 400 µM; against Acetylcholinesterase [10] it was greater than 1000 µM.

For `c1ccc2c(NCCCCCCCSc3c4c(nc5ccccc35)CCCC4)c3c(nc2c1)CCCC3`, the IC50 turned out to be 35 nM on Cholinesterase [2] and 340 nM on Acetylcholinesterase [3].

In the case of `COc1ccc(CNc2c3c(nc4ccccc24)CCCC3)cc1OC`, in [11], the viability at 24 h, 25 µM was 58.9%. Further, in series [12], the inhibition was 40%. The Ratio IC50 in the series filed under Homo sapiens is 110.

Consider `COc1ccccc1CN1CCN(Cc2ccc3cccnc3c2O)CC1`, for which the inhibition in series [13] worked out at 44.2%. Moreover, the IC50 at Cholinesterase [14] stood at 5.71 µM. Also, the viability at 24 h, 10 µM in [15] was greater than 90%. The viability at 24 h, 50 µM in [16] was found to be 81%.

Consider `CC(C)c1ccc(NC(=O)Oc2ccc3c(c2)[C@]2(C)CCN(CCc4ccccc4)[C@@H]2N3C)cc1`, for which, in the series with Rattus norvegicus [17], the inhibition in vivo at 1.25 mg/kg was found to be 180%. The inhibition in vivo at 2.5 mg/kg in the series on Rattus norvegicus [18] was found to be 290%.

In the case of `Oc1ccccc1/C=C/c1cc(O)c(F)c(O)c1`, in series [1], the Ratio IC50 is 96. The results for the concentration for half-maximal inhibition (IC50) against Cholinesterase [9] and against Acetylcholinesterase [10] were 10 µM and 960 µM, respectively.

With `c1ccc2c(SCCCCCCCSc3c4c(nc5ccccc35)CCCC4)c3c(nc2c1)CCCC3`, the IC50 is 380 nM on Cholinesterase [2] and greater than 10000 nM against Acetylcholinesterase [3].

In the case of `O=C(NCCCCCCNc1c2c(nc3ccccc13)CCCCC2)c1cc(O)c2c(c1)C(=O)c1cccc(O)c1C2=O`, in series [19], the inhibition is 64.8%. Moreover, the IC50 on Acetylcholinesterase [20] is 130 nM; at Cholinesterase [21], 11 nM. The Ratio IC50 in series [1] was 11.

On to `COc1ccc(Cn2cc(CNc3c4c(nc5ccccc35)CCCC4)nn2)cc1`, for which the IC50 against Cholinesterase [22] turned out to be 55 nM.
